Experiment [1] relates to cultured human mast cells (CHMC). Description: CHMC low cell density IgE activation: tryptase assay. In kind it is cell-based. To be noted: anti-IgE stimulated, tryptase release, first symbol of cell. The protocol: Inhibition of degranulation was measured at both low and high cell density by quantifying the release of the granule specific factors tryptase, histamine and hexosaminidase. Inhibition of release and/or synthesis of lipid mediators was assessed by measuring the release of leukotriene LTC4 and inhibition of release and/or synthesis of cytokines was monitored by quantifying TNF-α, IL-6 and IL-13. Tryptase and hexosaminidase were quantified using fluorogenic substrates as described in their respective examples. Histamine, TNFα, IL-6, IL-13 and LTC4 were quantified using the following commercial ELISA kits: histamine (Immunotech #2015, Beckman Coulter), TNFα (Biosource #KHC3011), IL-6 (Biosource #KMC0061), IL-13 (Biosource #KHC0132) and LTC4 (Cayman Chemical #520211). The protocols of the various assays are provided below.
7.7.2 CHMC Low Cell Density IgE Activation: Tryptase and LTC4 Assays
To duplicate 96-well U-bottom plates (Costar 3799) add 65 ul of compound dilutions or control samples that have been prepared in MT [137 mM NaCl, 2.7 mM KCl, 1.8 mM CaCl2, 1.0 mM MgCl2, 5.6 mM Glucose, 20 mM Hepes (pH 7.4), 0.1% Bovine Serum Albumin, (Sigma A4503)] containing 2% MeOH and 1% DMSO. Pellet CHMC cells (980 rpm, 10 min) and resuspend in pre-warmed MT. Add 65 ul of cells to each 96-well plate. Depending on the degranulation activity for each particular CHMC donor, load 1000-1500 cells/well. Mix four times followed by a 1 hr incubation at 37° C. During the 1 hr incubation, prepare 6× anti-IgE solution [rabbit anti-human IgE (1 mg/ml, Bethyl Laboratories A80-109A) diluted 1:167 in MT buffer]. Stimulate cells by adding 25 ul of 6× anti-IgE solution to the appropriate plates. Add 25 ul MT to un-stimulated control wells. Mix twice following addition of the anti-IgE. Incubate at 37° C. for 30 minutes. During the 30 minute incubation, dilute the 20 mM tryptase substrate stock solution [(Z-Ala-Lys-Arg-AMC2TFA; Enzyme Systems Products, #AMC-246)] 1:2000 in tryptase assay buffer [0.1 M Hepes (pH 7.5), 10% w/v Glycerol, 10 uM Heparin (Sigma H-4898) 0.01% NaN3]. Spin plates at 1000 rpm for 10 min to pellet cells. Transfer 25 ul of supernatant to a 96-well black bottom plate and add 100 ul of freshly diluted tryptase substrate solution to each well. Incubate plates at room temperature for 30 min. Read the […] of the plates at 355 nm/460 nm on a spectrophotometric plate reader.

Experiment [2] shares this test system. Description: CHMC low cell density ionomycin activation: tryptase assay. Format: cell-based. To be noted: ionomycin stimulated, tryptase release. The method, then:
To confirm that many of the quinoline compounds of the invention exert their inhibitory activity by blocking or inhibiting the early IgE receptor signal transduction cascade, many of the compounds were tested in cellular assays for ionomycin-induced degranulation, as described below.
7.8.1 CHMC Low Cell Density Ionomycin Activation: Tryptase Assay
Assays for ionomycin-induced mast cell degranulation were carried out as described for the CHMC Low Density IgE Activation assays (Section 7.7.2, supra), with the exception that during the 1 hour incubation, 6× ionomycin solution [5 mM ionomycin (Signma 1-0634) in MeOH (stock) diluted 1:416.7 in MT buffer ([…])] was prepared and cells were stimulated by adding 25 μl of the 6× ionomycin solution to the appropriate plates.

Experiment [3] has as its system mouse model of passive cutaneous anaphylaxis (PCA). To be noted: i.p., 30 minutes pretreatment time.
Protocol: This model provides a direct measure of IgE-induced degranulation of tissue mast cells. In this model, IgE primed animals are exposed to an allergen challenge and the change in permeability of dermal vasculature that results from histamine release from mast cells is measured by change in the amount of dye leakage into surrounding tissue. Inhibition of mediator release by compounds that modulate mast cell degranulation is easily measured by extracting the dye from the tissue.
In the PCA assay mice are passively sensitized by intradermal injection with anti-dinitrophenol (DNP) IgE antibodies (Day-1). At predetermined times (5-60 minutes prior to challenge), animals are treated with the test agent (Day 0). The modulatory effect of the agent on cutaneous mast cell degranulation is measured following intravenous injection of DNP conjugated to human serum albumin (HSA-DNP), together with Evans blue dye. The resulting cross-linking of the IgE receptor and subsequent mast cell degranulation-induced increase in vascular permeability is determined by measuring the amount of dye extravasation into the tissue. Dye is extracted from the tissue by formamide, and the absorbance of this extract is read at 620 nm. The inhibitory effect of drug treatment is reported as the percent inhibition compared to vehicle treatment, that is, the percent reduction in A620. […]
Where [4] appears, read: second symbol of cell, read-out: CHMC -IONO.
The mark [5] stands for this setting: Homo sapiens, Mast cell, second symbol of cell, read-out: CHMC -IONO.

Like-named read-outs stand apart in the source and are kept apart here.

The record followed here is patent US8008501B2, “Quinoline compounds and their uses” (Rigel Pharmaceuticals, Inc., priority 2003, dated 2011).

In the case of `Cc1noc(C)c1NC(=O)c1cc(-c2ccccc2)nc2ccccc12` [Compound 1], the IC50 in experiment [1] and in experiment [2] (setting [4]) was over 10 µM in each case.

For `Cc1cc(NC(=O)c2c(-c3ccccc3)noc2C)c2ccccc2n1` [Compound 3], the IC50 in experiment [1] is over 10 µM.

In the case of `Cc1onc(-c2ccccc2)c1C(=O)Oc1ccnc2ccccc12` [Compound 5], the IC50 in experiment [1] and in experiment [2] (setting [4]) was at most 10 µM throughout.

As for `Cc1onc(-c2ccccc2)c1C(=O)Oc1ccnc2cc(Cl)ccc12` [Compound 7], the IC50 in experiment [1] and in experiment [2] (setting [4]) was at most 10 µM throughout.

As for `Cc1cc(OC(=O)c2c(-c3ccccc3)noc2C)c2ccccc2n1` [Compound 9, 5-Methyl-3-phenyl-4-isoxazolecarboxylic acid, 2-methyl-4-quinolinyl Ester], the IC50 in experiment [1] (Homo sapiens, Mast cell) is at most 10 µM; in experiment [2] (setting [5]), at most 10 µM.

Regarding `Cc1cc(OC(=O)c2c(-c3ccccc3)noc2C)c2cc(F)ccc2n1` [Compound 11], the IC50 in experiment [1] and in experiment [2] (setting [4]) was at most 10 µM throughout.

Turning to `Cc1onc(-c2ccccc2)c1C(=O)Oc1ccnc2cc(C(F)(F)F)ccc12` [Compound 13], the IC50 in experiment [1] and in experiment [2] (setting [4]) was at most 10 µM each time.

`Cc1onc(-c2ccccc2)c1C(=O)Oc1ccnc2c(C(F)(F)F)cccc12` [Compound 15] gave an IC50 in experiment [1] of at most 10 µM.

As to `CCOC(=O)c1cnc2cc(C(F)(F)F)ccc2c1OC(=O)c1c(-c2ccccc2)noc1C` [Compound 17], the IC50 in experiment [1] and in experiment [2] (setting [4]) was at most 10 µM in each case.

Consider `CCOC(=O)c1cc(OC(=O)c2c(-c3ccccc3)noc2C)c2ccccc2n1` [Compound 19], for which the IC50 in experiment [1] and in experiment [2] (setting [4]) was at most 10 µM throughout.

As for `Cc1cc(OC(=O)c2c(C)noc2C)c2cc(F)ccc2n1` [Compound 21], the IC50 in experiment [1] is at most 10 µM.

Turning to `Cc1cc(OC(=O)c2c(-c3c(F)cccc3Cl)noc2C)c2cc(F)ccc2n1` [Compound 23], the IC50 in experiment [1] is at most 10 µM.

As for `Cc1cc(OC(=O)c2c(-c3ccccc3Cl)noc2C)c2cc(F)ccc2n1` [Compound 25], the IC50 in experiment [1] and in experiment [2] (setting [4]) was at most 10 µM throughout.

Consider `Cc1onc(-c2ccccc2)c1C(=O)Oc1cc(C(F)(F)F)nc2ccc(OC(F)(F)F)cc12` [Compound 27], for which the IC50 in experiment [1] and in experiment [2] (setting [4]) was at most 10 µM in each case.

Take `Cc1noc(C)c1C(=O)Oc1cc(C(F)(F)F)nc2ccc(OC(F)(F)F)cc12` [Compound 29]: the IC50 in experiment [1] and in experiment [2] (setting [4]) was at most 10 µM throughout.

Consider `Cc1onc(-c2c(F)cccc2Cl)c1C(=O)Oc1cc(C(F)(F)F)nc2ccc(OC(F)(F)F)cc12` [Compound 31], for which the IC50 in experiment [1] and in experiment [2] (setting [4]) was at most 10 µM each time.

On to `Cc1onc(-c2ccccc2Cl)c1C(=O)Oc1cc(C(F)(F)F)nc2ccc(OC(F)(F)F)cc12` [Compound 33], for which the IC50 in experiment [1] was at most 10 µM.

Take `Cc1onc(-c2ccccc2)c1C(=O)Nc1ccnc2cc(C(F)(F)F)ccc12` [Compound 35, 5-Methyl-3-phenyl-N-(7-trifluoromethyl-4-quinolinyl)-4-isoxazolecarboxamide]: the IC50 in experiment [1] (Homo sapiens, Mast cell) is at most 10 µM; in experiment [2] (setting [5]), at most 10 µM.

Regarding `Cc1noc(C)c1C(=O)Nc1ccnc2cc(C(F)(F)F)ccc12` [Compound 37], the IC50 in experiment [1] and in experiment [2] (setting [4]) was over 10 µM throughout.

For `Cc1onc(-c2c(F)cccc2Cl)c1C(=O)Nc1ccnc2cc(C(F)(F)F)ccc12` [Compound 39], the values for the IC50 in experiment [1] and in experiment [2] (read-out: CHMC -IONO (number printed instead of class symbol)) were at most 10 µM and 30 µM, respectively.

As to `Cc1onc(-c2ccccc2Cl)c1C(=O)Nc1ccnc2cc(C(F)(F)F)ccc12` [Compound 41], the IC50 in experiment [1] and in experiment [2] (setting [4]) was over 10 µM in each case.

With `Cc1onc(-c2ccccc2)c1NC(=O)c1cc(Cl)nc2ccc(Br)cc12` [Compound 43, 6-bromo-2-chloro-N-(5-methyl-3-phenylisoxazol-4-yl)-4-quinolinecarboxamide], the IC50 in experiment [1] (Homo sapiens, Mast cell) is at most 10 µM; in experiment [2] (setting [5]), over 10 µM.

Regarding `Cc1noc(C)c1NC(=O)c1cc(Cl)nc2ccc(Br)cc12` [Compound 45], the IC50 in experiment [1] is at most 10 µM; in experiment [2] (setting [4]) it was over 10 µM.

As for `Cc1cc(C(=O)Nc2c(-c3ccccc3)noc2C)c2cc(F)ccc2n1` [Compound 47, 6-Fluoro-2-methyl-N-(5-methyl-3-phenylisoxazol-4-yl)-4-quinolinecarboxamide], the IC50 in experiment [1] (Homo sapiens, Mast cell) was at most 10 µM; in experiment [2] (setting [5]), over 10 µM.

In the case of `Cc1cc(C(=O)Nc2c(C)noc2C)c2cc(F)ccc2n1` [Compound 49], the IC50 was at most 10 µM in experiment [1] and over 10 µM in experiment [2] (setting [4]).

In the case of `Cc1onc(-c2ccccc2)c1C(=O)Oc1ccnc2ccc(OC(F)(F)F)cc12` [Compound 51], the IC50 in experiment [1] and in experiment [2] (setting [4]) was at most 10 µM throughout.

For the molecule `Cc1onc(-c2ccccc2Cl)c1C(=O)Oc1ccnc2ccc(OC(F)(F)F)cc12` [Compound 53], the IC50 in experiment [1] and in experiment [2] (setting [4]) was at most 10 µM in each case.

In the case of `Cc1onc(-c2c(F)cccc2Cl)c1C(=O)Oc1ccnc2ccc(OC(F)(F)F)cc12` [Compound 57], the IC50 in experiment [1] was at most 10 µM; in experiment [2] (setting [4]), over 10 µM.

Take `Cc1onc(-c2ccccc2)c1NC(=O)c1cc(-c2ccccc2)nc2ccccc12` [Compound 61]: the IC50 in experiment [1] and in experiment [2] (setting [4]) was over 10 µM throughout.

Turning to `Cc1onc(-c2ccccc2)c1NC(=O)c1ccnc2ccccc12` [Compound 63], the IC50 in experiment [1] and in experiment [2] (setting [4]) was over 10 µM each time.

Turning to `Cc1onc(-c2ccccc2)c1NC(=O)c1cc(Nc2ccc3[nH]ccc3c2)nc2ccc(Br)cc12` [Compound 65], the IC50 was at most 10 µM in experiment [1] and over 10 µM in experiment [2] (setting [4]).

For the molecule `CNc1cc(NC(=O)c2c(-c3ccccc3)noc2C)c2cc(Br)ccc2n1` [Compound 67], the figures for the IC50 in experiment [1] and in experiment [2] (setting [4]) were at most 10 µM and over 10 µM, respectively.

Regarding `Cc1onc(-c2ccccc2)c1NC(=O)c1cc(Nc2cccc(O)c2)nc2ccc(Br)cc12` [Compound 71, 6-Bromo-2-(3-hydroxyphenyl)amino-N-(5-methyl-3-phenylisoxazol-4-yl)-4-quinolinecarboxamide], the IC50 was at most 10 µM in experiment [1] (Homo sapiens, Mast cell) and at most 10 µM in experiment [2] (setting [5]).

On to `CN1CCC(=C2c3ccccc3C=Cc3ccccc32)CC1` [Cyproheptadine, cyproheptadine], for which the “inhibition of the PCA response” value in experiment [3] (8 mg/kg, n=23 experiments) is given as 61% +/−4.

For the molecule `CN(C)CCOC(c1ccccc1)c1ccccc1` [diphenhydramine], the “inhibition of the PCA response” value in experiment [3] (highest dose 50 mg/kg) is listed as “up to 86%”.
